{"source": "patent US20260355196A1", "about": "“INHIBITORS AND DEGRADERS OF PIP4K PROTEIN” (Larkspur Biosciences, Inc., priority 2023, published 2026)"}
{"target": "T1, PIP4K2C (Homo sapiens, UniProt Q8TBX8)", "T1 sequence (Q8TBX8 1-421)": "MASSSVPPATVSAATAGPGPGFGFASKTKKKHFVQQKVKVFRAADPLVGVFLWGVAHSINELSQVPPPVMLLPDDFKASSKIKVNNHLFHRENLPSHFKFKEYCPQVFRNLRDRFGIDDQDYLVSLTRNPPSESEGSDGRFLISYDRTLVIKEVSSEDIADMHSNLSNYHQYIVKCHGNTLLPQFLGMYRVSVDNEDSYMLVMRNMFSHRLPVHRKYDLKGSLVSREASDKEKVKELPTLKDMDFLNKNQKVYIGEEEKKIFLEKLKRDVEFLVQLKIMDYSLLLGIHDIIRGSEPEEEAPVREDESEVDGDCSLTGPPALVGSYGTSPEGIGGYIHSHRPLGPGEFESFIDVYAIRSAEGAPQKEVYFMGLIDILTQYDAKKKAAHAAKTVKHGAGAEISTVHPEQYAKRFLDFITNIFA", "assay": "HiBiT PIP4K2C degradation assay in MOLT-4 cells (endogenous PIP4K2C C-terminally tagged with HiBiT)", "type": "cell-based", "design": "untagged in primary human PBMCs and monocyte-derived dendritic cells", "conditions": "6 hours of incubation time, rather than 24 hours; MOLT-4, top concentration 10 micromolar; read-out: HiBIT-degradation MOLT4 PIP4k2C DC50 (6 hours, marked *)", "summary_of_the_method": "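Endogenous PIP4K2C was C-terminally HiBiT-tagged by CRISPR-Cas9 in MOLT-4 cells, which were treated with a 10-point, 3-fold dilution series from 10 micromolar in duplicate for 24 or 6 hours at 37 C. Remaining protein was read by HiBiT lytic luminescence, and DC50 came from a Hill fit.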", "units": {"DC50": "nM"}}
{"molecule": "O=C1CCC(Nc2ccc(N3CCC(OC4CCN(C(=O)[C@H]5CC[C@H](Nc6ncc(F)c(-c7cccc(N8CCCCC8=O)c7)n6)CC5)CC4)CC3)c(F)c2)C(=O)N1", "note": "(stereo partly drawn) [Compound 413, trans-3-((3-fluoro-4-(4-((1-(4-((5-fluoro-4-(3-(2-oxopiperidin-1-yl)phenyl)pyrimidin-2-yl)amino)cyclohexane-1-carbonyl)piperidin-4-yl)oxy)piperidin-1-yl)phenyl)amino)piperidine-2,6-dione]", "DC50": "< 500"}
{"molecule": "O=C1CCC(Nc2ccc(N3CCC(CC4CCN(C(=O)[C@H]5CC[C@H](Nc6ncc(F)c(-c7cccc(N8CCCCC8=O)c7)n6)CC5)CC4)CC3)c(F)c2)C(=O)N1", "note": "(stereo partly drawn) [Compound 414, trans-3-((3-fluoro-4-(4-((1-(-4-((5-fluoro-4-(3-(2-oxopiperidin-1-yl)phenyl)pyrimidin-2-yl)amino)cyclohexane-1-carbonyl)piperidin-4-yl)methyl)piperidin-1-yl)phenyl)amino)piperidine-2,6-dione]", "DC50": "< 500"}
{"molecule": "O=C1CCC(Nc2ccc(N3CCC(CN4CCN(C(=O)[C@H]5CC[C@H](Nc6ncc(F)c(-c7cccc(N8CCCCC8=O)c7)n6)CC5)CC4)CC3)c(F)c2)C(=O)N1", "note": "(stereo partly drawn) [Compound 415, trans-3-((3-fluoro-4-(4-((4-(4-((5-fluoro-4-(3-(2-oxopiperidin-1-yl)phenyl)pyrimidin-2-yl)amino)cyclohexane-1-carbonyl)piperazin-1-yl)methyl)piperidin-1-yl)phenyl)amino)piperidine-2,6-dione]", "DC50": "< 500"}
{"molecule": "O=C1CCC(Nc2ccc(N3CCN(C[C@H]4CC[C@H](CNC(=O)[C@H]5CC[C@H](Nc6ncc(F)c(-c7cccc(-n8ccccc8=O)c7)n6)CC5)CC4)CC3)c(F)c2)C(=O)N1", "note": "(stereo partly drawn) [Compound 416, trans-N-((trans-4-((4-(4-((2,6-dioxopiperidin-3-yl)amino)-2-fluorophenyl)piperazin-1-yl)methyl)cyclohexyl)methyl)-4-((5-fluoro-4-(3-(2-oxopyridin-1(2H)-yl)phenyl)pyrimidin-2-yl)amino)cyclohexane-1-carboxamide]", "DC50": "< 500"}
{"molecule": "Cn1nc(C2CCC(=O)NC2=O)c2ccc(N3CCN(CC4CCN(C(=O)[C@H]5CC[C@H](Nc6ncc(F)c(-c7cccc(-c8ccc[nH]c8=O)c7)n6)CC5)CC4)CC3)cc21", "note": "(stereo partly drawn) [Compound 417, 3-(6-(4-((1-(trans-4-((5-fluoro-4-(3-(2-oxo-1,2-dihydropyridin-3-yl)phenyl)pyrimidin-2-yl)amino)cyclohexane-1-carbonyl)piperidin-4-yl)methyl)piperazin-1-yl)-1-methyl-1H-indazol-3-yl)piperidine-2,6-dione]", "DC50": "< 500"}
{"molecule": "O=C1CCC(Nc2ccc(N3CCN([C@H]4CC[C@H](C(=O)N[C@H]5CC[C@H](Nc6ncc(F)c(-c7cccc(N8CCCOC8=O)c7)n6)CC5)CC4)CC3)c(F)c2)C(=O)N1", "note": "(stereo partly drawn) [Compound 424, trans-(1r,4R)-4-(4-(4-((2,6-dioxopiperidin-3-yl)amino)-2-fluorophenyl)piperazin-1-yl)-N-((1r,4R)-4-((5-fluoro-4-(3-(2-oxo-1,3-oxazinan-3-yl)phenyl)pyrimidin-2-yl)amino)cyclohexyl)cyclohexane-1-carboxamide]", "DC50": "< 500"}
{"molecule": "O=C1CCC(Nc2ccc(N3CCC(CC4CCN(C(=O)[C@H]5CC[C@H](Nc6ncc(F)c(-c7cccc(N8CCCOC8=O)c7)n6)CC5)CC4)CC3)c(F)c2)C(=O)N1", "note": "(stereo partly drawn) [Compound 425, trans-3-((3-fluoro-4-(4-((1-(-4-((5-fluoro-4-(3-(2-oxo-1,3-oxazinan-3-yl)phenyl)pyrimidin-2-yl)amino)cyclohexane-1-carbonyl)piperidin-4-yl)methyl)piperidin-1-yl)phenyl)amino)piperidine-2,6-dione]", "DC50": "< 500"}
{"molecule": "O=C1CCC(Nc2ccc(N3CCN(CC4CCN(C(=O)[C@H]5CC[C@H](Nc6ncc(F)c(-c7cccc(N8CCCOC8=O)c7)n6)CC5)CC4)CC3)c(F)c2)C(=O)N1", "note": "(stereo partly drawn) [Compound 426, trans-3-[3-fluoro-4-[4-[[1-[4-[[5-fluoro-4-[3-(2-oxo-1,3-oxazinan-3-yl)phenyl]pyrimidin-2-yl]amino]cyclohexanecarbonyl]-4-piperidyl]methyl]piperazin-1-yl]anilino]piperidine-2,6-dione]", "DC50": "< 500"}
{"molecule": "O=C1CCC(Nc2ccc(C3CCN(CC4CCN(C(=O)[C@H]5CC[C@H](Nc6ncc(F)c(-c7cccc(N8CCCOC8=O)c7)n6)CC5)CC4)CC3)c(F)c2)C(=O)N1", "note": "(stereo partly drawn) [Compound 427, trans-3-((3-fluoro-4-(1-((1-(4-((5-fluoro-4-(3-(2-oxo-1,3-oxazinan-3-yl)phenyl)pyrimidin-2-yl)amino)cyclohexane-1-carbonyl)piperidin-4-yl)methyl)piperidin-4-yl)phenyl)amino)piperidine-2,6-dione]", "DC50": "< 500"}
{"molecule": "O=C1CCC(Nc2ccc(N3CCC(CN4CCN(C(=O)[C@H]5CC[C@H](Nc6ncc(F)c(-c7cccc(N8CCCOC8=O)c7)n6)CC5)CC4)CC3)c(F)c2)C(=O)N1", "note": "(stereo partly drawn) [Compound 428, trans-3-((3-fluoro-4-(4-((4-(4-((5-fluoro-4-(3-(2-oxo-1,3-oxazinan-3-yl)phenyl)pyrimidin-2-yl)amino)cyclohexane-1-carbonyl)piperazin-1-yl)methyl)piperidin-1-yl)phenyl)amino)piperidine-2,6-dione]", "DC50": "< 500"}
{"molecule": "O=C1CCC(Nc2ccc(N3CCC(N4CCC(C(=O)N[C@H]5CC[C@H](Nc6ncc(F)c(-c7cccc(-c8ccc[nH]c8=O)c7)n6)CC5)CC4)CC3)c(F)c2)C(=O)N1", "note": "(stereo partly drawn) [Compound 429, trans-1′-(4-((2,6-dioxopiperidin-3-yl)amino)-2-fluorophenyl)-N-(4-((5-fluoro-4-(3-(2-oxo-1,2-dihydropyridin-3-yl)phenyl)pyrimidin-2-yl)amino)cyclohexyl)-[1,4′-bipiperidine]-4-carboxamide]", "DC50": "< 500"}
{"molecule": "O=C1CCC(Nc2ccc(N3CCC(CN4CCN(C(=O)[C@H]5CC[C@H](Nc6ncc(F)c(-c7cccc(-c8ccc[nH]c8=O)c7)n6)CC5)CC4)CC3)c(F)c2)C(=O)N1", "note": "(stereo partly drawn) [Compound 430, 3-((3-fluoro-4-(4-((4-(trans-4-((5-fluoro-4-(3-(2-oxo-1,2-dihydropyridin-3-yl)phenyl)pyrimidin-2-yl)amino)cyclohexane-1-carbonyl)piperazin-1-yl)methyl)piperidin-1-yl)phenyl)amino)piperidine-2,6-dione]", "DC50": "< 500"}
{"molecule": "O=C1CCC(Nc2ccc(N3CCC(N4CCC(NC(=O)[C@H]5CC[C@H](Nc6ncc(F)c(-c7cccc(-n8ccccc8=O)c7)n6)CC5)CC4)C(F)(F)C3)c(F)c2)C(=O)N1", "note": "(stereo partly drawn) [Compound 431, trans-N-(1′-(4-((2,6-dioxopiperidin-3-yl)amino)-2-fluorophenyl)-3′,3′-difluoro-[1,4′-bipiperidin]-4-yl)-4-((5-fluoro-4-(3-(2-oxopyridin-1(2H)-yl)phenyl)pyrimidin-2-yl)amino)cyclohexane-1-carboxamide]", "DC50": "< 500"}
{"molecule": "O=C1CCC(Nc2ccc(C3CCN(C4CCC(NC(=O)C5CCC(Nc6ncc(F)c(-c7cccc(-c8ccc[nH]c8=O)c7)n6)CC5)CC4)CC3)c(F)c2)C(=O)N1", "note": "[Compound 435, trans-(1r,4R)—N-((1S,4R)-4-(4-(4-(((S)-2,6-dioxopiperidin-3-yl)amino)-2-fluorophenyl)piperidin-1-yl)cyclohexyl)-4-((5-fluoro-4-(3-(2-oxo-1,2-dihydropyridin-3-yl)phenyl)pyrimidin-2-yl)amino)cyclohexane-1-carboxamide]", "DC50": "< 500"}
{"molecule": "O=C1CC[C@@H](Nc2ccc(N3CCC(N4CCC(NC(=O)[C@H]5CC[C@H](Nc6ncc(F)c(-c7cccc(-n8ccccc8=O)c7)n6)CC5)CC4)CC3)c(F)c2)C(=O)N1", "note": "[Compound 440, trans-N-(1′-(4-(((R)-2,6-dioxopiperidin-3-yl)amino)-2-fluorophenyl)-[1,4′-bipiperidin]-4-yl)-4-((5-fluoro-4-(3-(2-oxopyridin-1(2H)-yl)phenyl)pyrimidin-2-yl)amino)cyclohexane-1-carboxamide]", "DC50": "< 500"}
{"molecule": "O=C1CCC(Nc2ccc(N3CCC(N4CCC(O)(C(=O)N[C@H]5CC[C@H](Nc6ncc(F)c(-c7cccc(-n8ccccc8=O)c7)n6)CC5)CC4)CC3)c(F)c2)C(=O)N1", "note": "(stereo partly drawn) [Compound 444, trans-1′-(4-((2,6-dioxopiperidin-3-yl)amino)-2-fluorophenyl)-N-(4-((5-fluoro-4-(3-(2-oxopyridin-1(2H)-yl)phenyl)pyrimidin-2-yl)amino)cyclohexyl)-4-hydroxy-[1,4′-bipiperidine]-4-carboxamide]", "DC50": "< 500"}
{"molecule": "O=C1CCC(Nc2ccc(C3CCN([C@H]4CC[C@H](C(=O)N[C@H]5CC[C@H](Nc6ncc(F)c(-c7cccc(N8CCOC8=O)c7)n6)CC5)CC4)CC3)c(F)c2)C(=O)N1", "note": "(stereo partly drawn) [Compound 446, trans-(1r,4R)-4-(4-(4-((2,6-dioxopiperidin-3-yl)amino)-2-fluorophenyl)piperidin-1-yl)-N-((1r,4R)-4-((5-fluoro-4-(3-(2-oxooxazolidin-3-yl)phenyl)pyrimidin-2-yl)amino)cyclohexyl)cyclohexane-1-carboxamide]", "DC50": "< 500"}
{"molecule": "O=C1CCC(Nc2ccc(C3CCN([C@H]4CC[C@H](C(=O)N[C@H]5CC[C@H](Nc6ncc(F)c(-c7cccc(N8CCCCC8=O)c7)n6)CC5)CC4)CC3)c(F)c2)C(=O)N1", "note": "(stereo partly drawn) [Compound 447, trans-(1r,4R)-4-(4-(4-((2,6-dioxopiperidin-3-yl)amino)-2-fluorophenyl)piperidin-1-yl)-N-((1r,4R)-4-((5-fluoro-4-(3-(2-oxopiperidin-1-yl)phenyl)pyrimidin-2-yl)amino)cyclohexyl)cyclohexane-1-carboxamide]", "DC50": "< 500"}
